The results in this text go back to patent US8835458B2 (Hanmi Science Co., Ltd, priority 2010, dated 2014).

Where two headings read alike, the source gives them in different places.

The test system of series [1] is caspase 9. Briefly: Evaluation of caspase activity (Caspase-Glo 9 Assay Kit). The note with it: MDA-MB-231 cells, 16 hours, compared to untreated MDA-MB-231 cells; 0.5, 1, 5 μM tested. In kind it is cell-based. As to the method: (§1) MDA-MB-231 breast cancer cells (ATCC #HTB-26) were plated in 96-well plates at a density of 1.0 1.5×10^4 cells/well. […] Then, media were removed and the cells were washed two times with PBS at 4° C. The cells were treated with a solution of the analysis samples and media (1:1) in an amount of 140 μL/well using Caspase-GloTM 9 Assay Kit (Cat#. […]; Promega, USA) and Caspase-GloTM 3/7 Assay Kit (Cat#. […]; Promega, USA). After the cells were incubated at 37° C. for 2 hours, luminescence was measured using InfiniteTM M1000 multi reader (Tecan). […] The values were represented as “***” for six fold or more, “**” for 4 fold to below 6 fold, and “*” for 1 fold to below 4 fold, as compared to that of untreated, normal MDA-MB-231 breast cancer cell lines.

The test system of series [2] is MDA-MB-231 breast cancer cell lines. Kind of series: Evaluation of inhibition on cell growth (MTS). It counts as cell-based. In short, it runs like this:
(§2)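 GI50 values come from growth equations comparing treated, untreated and medium-only wells. Fibroblasts (Hs27, Balb/c3t3) got 72 h compound exposure with SRB read-out at 540 nm after TCA fixing. MDA-MB-231 got 120 h with MTS at 490 nm, across 10 μM˜0.1 nM.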

The subject of series [3] is caspase 3/7. Kind of series: Evaluation of caspase activity (Caspase-Glo 3/7 Assay Kit). The following applies: MDA-MB-231 cells, 12 hours, compared to untreated MDA-MB-231 cells; 0.5, 1, 5 μM tested. In kind it is cell-based. How it is done:
as §1

Series [4] is described as follows: Toxicity to normal cells (SRB). The note with it: human, Hs27 fibroblasts (normal cell line). It counts as cell-based, human. In short, it runs like this:
as §2

Series [5] in a line: Toxicity to normal cells (SRB). In kind it is cell-based, mouse. The following applies: mouse, Balb/c3t3 fibroblasts (normal cell line), read-out: BalB/C (GI50). In short, it runs like this: as §2
Series [6] deals with Hs27 fibroblasts. Kind of series: Toxicity to normal cells (SRB). It counts as cell-based, human. The note with it: normal cell line, 72 hours. In a few lines: as §2
Series [7] relates to Balb/c3t3 fibroblasts. Briefly: Toxicity to normal cells (SRB). In kind it is cell-based, mouse. The following applies: normal cell line, 72 hours, read-out: BalB/C (GI50). In short, it runs like this:
as §2

Setting [8] is: Homo sapiens, MDA-MB-231, 120 hours.

Consider `CN[C@@H](C)C(=O)N[C@H](C(=O)N1CCC[C@H]1C(=O)Nc1cc2c(NCc3ccccc3)ncnc2cc1OC)C(C)(C)C.Cl` [Example 18, (S)—N-(4-benzylamino-7-methoxyquinazolin-6-yl)-1-((S)-3,3-dimethyl-2-((S)-2-(methylamino)propanamido)butanoyl)pyrrolidine-2-carboxamide hydrochloride], for which, in series [1], the Caspase-9 entry is on record as “*** (six fold or more)”. In series [2] (setting [8]), this compound came in with a GI50 of at most 0.1 µM. Moreover, the Caspase-3 result in series [3] was “*** (six fold or more)”. The GI50 at 72 h in series [4] and in series [5] was over 10 µM each time.
Take `CN[C@@H](C)C(=O)N[C@H](C(=O)N1CCC[C@H]1C(=O)Nc1cc2c(Nc3ccc(F)c(Cl)c3F)ncnc2cc1OC)C(C)(C)C.Cl` [Example 1, (S)—N-(4-(3-chloro-2,4-difluorophenylamino)-7-methoxyquinazolin-6-yl)-1-((S)-3,3-dimethyl-2-((S)-2-(methylamino)propanamido)butanoyl)pyrrolidine-2-carboxamide hydrochloride]: the Caspase-9 entry in series [1] is “*** (six fold or more)”. The compound also showed a GI50 in series [2] (setting [8]) of at most 0.1 µM. Also, in series [3], the Caspase-3 entry is listed as “*** (six fold or more)”. The GI50 at 72 h in series [4] and in series [5] was over 10 µM in each case.
For the compound `CN[C@@H](C)C(=O)N[C@H](C(=O)N1CCC[C@H]1C(=O)Nc1cc2c(Nc3cccc(Cl)c3F)ncnc2cc1OC)C(C)(C)C.Cl` [Example 7], in series [1], the Caspase-9 entry was “*** (six fold or more)”. The Caspase-3 entry in series [3] was “*** (six fold or more)”.
For the compound `CN[C@@H](C)C(=O)N[C@H](C(=O)N1CCC[C@H]1C(=O)Nc1cc2c(Nc3ccc(Br)cc3F)ncnc2cc1OC)C(C)(C)C.Cl` [Example 9, (S)—N-(4-(4-bromo-2-fluorophenylamino)-7-methoxyquinazolin-6-yl)-1-((S)-3,3-dimethyl-2-((S)-2-(methylamino)propanamido)butanoyl)pyrrolidine-2-carboxamide hydrochloride], in series [1], the Caspase-9 result is given as “*** (six fold or more)”. The GI50 in series [2] (setting [8]) is at most 0.1 µM. The Caspase-3 result in series [3] is given as “*** (six fold or more)”. Moreover, the GI50 at 72 h in series [4] and in series [5] was over 10 µM throughout.
As to `CN[C@@H](C)C(=O)N[C@H](C(=O)N1CCC[C@H]1C(=O)Nc1cc2c(Nc3ccccc3)ncnc2cc1OC)C(C)(C)C.Cl` [Example 11, (S)—N-(4-phenylamino-7-methoxyquinazolin-6-yl)-1-((S)-3,3-dimethyl-2-((S)-2-(methylamino)propanamido)butanoyl)pyrrolidine-2-carboxamide hydrochloride], the Caspase-9 result in series [1] was “*** (six fold or more)”. In series [2] (setting [8]), this compound registered a GI50 of at most 0.1 µM. Moreover, the Caspase-3 result in series [3] is listed as “*** (six fold or more)”. Also, the GI50 at 72 h in series [4] and in series [5] was over 10 µM throughout.
Regarding `CN[C@@H](C)C(=O)N[C@H](C(=O)N1CCC[C@H]1C(=O)Nc1cc2c(Nc3ccccc3F)ncnc2cc1OC)C(C)(C)C.Cl` [Example 10, (S)-1-((S)-3,3-dimethyl-2-((S)-2-(methylamino)propanamido)butanoyl)-N-(4-(2-fluorophenylamino)-7-methoxyquinazolin-6-yl)pyrrolidine-2-carboxamide hydrochloride], the Caspase-9 result in series [1] is “*** (six fold or more)”. For the same compound, the GI50 in series [2] (setting [8]) is at most 0.1 µM. The Caspase-3 result in series [3] was “*** (six fold or more)”. Further, the GI50 at 72 h in series [4] and in series [5] was over 10 µM throughout.
Take `CN[C@@H](C)C(=O)N[C@H](C(=O)N1CCC[C@H]1C(=O)Nc1cc2c(Nc3ccc(F)c(F)c3F)ncnc2cc1OC)C(C)(C)C.Cl` [Example 17, (S)-1-((S)-3,3-dimethyl-2-((S)-2-(methylamino)propanamido)butanoyl)-N-(7-methoxy-4-(2,3,4-trifluorophenylamino)quinazolin-6-yl)pyrrolidine-2-carboxamide hydrochloride]: the Caspase-9 result in series [1] is on record as “*** (six fold or more)”. Moreover, in series [2] (setting [8]), the GI50 is at most 0.1 µM. Moreover, the Caspase-3 entry in series [3] is “*** (six fold or more)”. The GI50 at 72 h in series [4] and in series [5] was over 10 µM each time.
As to “(S)—N—((S)-1-((S)-2-(4-((4-bromo-2-fluorophenylamino)-6-methoxyquinazolinyl-7-oxy)methyl)piperidine)-1-carbonyl)-1-pyrrolidinyl)-3,3-dimethyloxobutan-2-yl)-2-(methylamino)propanamide hydrochloride [Example 44]”, the GI50 in series [2] (120 hours) is at most 0.1 µM; in series [6], over 10 µM; in series [7], over 10 µM.
Regarding `CN[C@@H](C)C(=O)N[C@H](C(=O)N1CCC[C@H]1C(=O)Nc1cc2c(Nc3ccc(F)c(Cl)c3F)ncnc2cc1OC)C1CCCCC1.Cl` [Example 15, (S)—N-(4-(3-chloro-2,4-difluorophenylamino)-7-methoxyquinazolin-6-yl)-1-((S)-2-cyclohexyl-2-((S)-2-(methylamino)propanamido)acetyl)pyrrolidine-2-carboxamide hydrochloride], the Caspase-9 result in series [1] is “*** (six fold or more)”. This compound also returned a GI50 in series [2] (setting [8]) of at most 0.1 µM. The Caspase-3 result in series [3] is “*** (six fold or more)”. The GI50 at 72 h in series [4] and in series [5] was over 10 µM each time.
On to `CN[C@@H](C)C(=O)N[C@H](C(=O)N1CCC[C@H]1C(=O)Nc1cc2c(Nc3cccc(Cl)c3F)ncnc2cc1OCCOC)C(C)(C)C.Cl` [Example 2, (S)—N-(4-(3-chloro-2-fluorophenylamino)-7-(2-methoxyethoxy)quinazolin-6-yl)-1-((S)-3,3-dimethyl-2-((S)-2-(methylamino)propanamido)butanoyl)pyrrolidine-2-carboxamide hydrochloride], for which the Caspase-9 result in series [1] is recorded as “* (1 fold to below 4 fold)”. Also, the GI50 in series [2] (setting [8]) lay within 0.1 to 1 µM. In addition, in series [3], the Caspase-3 entry was “** (4 fold to below 6 fold)”. Besides, the GI50 at 72 h in series [4] and in series [5] was over 10 µM in each case.
For the compound `CN[C@@H](C)C(=O)N[C@H](C(=O)N1CCC[C@H]1C(=O)Nc1cc2c(Nc3ccc(Cl)c(Cl)c3F)ncnc2cc1OC)C(C)(C)C.Cl` [Example 8, (S)—N-(4-(3,4-dichloro-2-fluorophenylamino)-7-methoxyquinazolin-6-yl)-1-((S)-3,3-dimethyl-2-((S)-2-(methylamino)propanamido)butanoyl)pyrrolidine-2-carboxamide hydrochloride], the Caspase-9 entry in series [1] is “*** (six fold or more)”. In addition, the GI50 in series [2] (setting [8]) was at most 0.1 µM. In addition, in series [3], the Caspase-3 result was “*** (six fold or more)”. Also, the GI50 at 72 h in series [4] and in series [5] was over 10 µM in each case.
For the compound `CN[C@@H](C)C(=O)N[C@H](C(=O)N1CCC[C@H]1C(=O)Nc1cc2c(Nc3ccc(Oc4ccc(C)nc4)c(Cl)c3)ncnc2cc1OC)C(C)(C)C.Cl` [Example 19, (S)—N-(4-(3-chloro-4-(6-methylpyridin-3-yloxy)phenylamino)-7-methoxyquinazolin-6-yl)-1-((S)-3,3-dimethyl-2-((S)-2-(methylamino)propanamido)butanoyl)pyrrolidine-2-carboxamide hydrochloride], in series [1], the Caspase-9 entry is “*** (six fold or more)”. Besides, in series [2] (setting [8]), the GI50 was at most 0.1 µM. Further, the Caspase-3 result in series [3] is given as “*** (six fold or more)”. Besides, the GI50 at 72 h in series [4] and in series [5] was over 10 µM throughout.
